ChEMBL document CHEMBL3885881, “DrugMatrix”

Species on record: Rattus norvegicus
Experiment: DrugMatrix - Regimen: Daily Repeat
Type: toxicity, organism-based, Sprague-Dawley
Parameters: regimen Daily Repeat, gender Male, age 6-8 weeks
Conditions: in vivo, po, route oral GAVAGE, vehicle 100 % WATER; for ABSOLUTE BASOPHIL / ABSOLUTE EOSINOPHIL / ABSOLUTE LYMPHOCYTE / ABSOLUTE MONOCYTE / ABSOLUTE SEGMENTED NEUTROPHIL / BASOPHIL / EOSINOPHIL / ERYTHROCYTE COUNT / HEMATOCRIT / HEMOGLOBIN / LEUKOCYTE COUNT / LYMPHOCYTE / MEAN CORPUSCULAR HEMOGLOBIN / MEAN CORPUSCULAR HEMOGLOBIN CONCENTRATION / MEAN CORPUSCULAR VOLUME / MONOCYTE / NEUTROPHIL / NUCLEATED RED BLOOD CELLS / PLATELET COUNT: tissue Blood; for ALANINE AMINOTRANSFERASE / ALBUMIN / ALKALINE PHOSPHATASE / ASPARTATE AMINOTRANSFERASE / BLOOD UREA NITROGEN / CARBON DIOXIDE / CHLORIDE / CHOLESTEROL / CREATINE PHOSPHOKINASE / CREATININE / GLUCOSE / LACTATE DEHYDROGENASE / LIPASE / PHOSPHORUS / POTASSIUM / SODIUM / TOTAL BILIRUBIN / TOTAL PROTEIN / URIC ACID: tissue Plasma
[1] = 0 mg/kg, 72 h, dose level Control, time 3 day
[2] = 0 mg/kg, 120 h, dose level Control, time 5 day
[3] = 50 mg/kg, 72 h, dose level Low, time 3 day

With `Cc1ncc([N+](=O)[O-])n1CCO` [METRONIDAZOLE] as the molecule, how does the “ABSOLUTE BASOPHIL” value [1] read?
Its value is 0 CELLS/uL.

And the “ABSOLUTE EOSINOPHIL” value [1]?
Its value is 86.33 CELLS/uL.

What about the “ABSOLUTE LYMPHOCYTE” value [1] of the same molecule?
Its value is 12090.17 CELLS/uL.

And the “ABSOLUTE MONOCYTE” value [1]?
Its value is 166.67 CELLS/uL.

And the “ABSOLUTE SEGMENTED NEUTROPHIL” value [1]?
The value was 1090.17 CELLS/uL.

And the BASOPHIL [1]?
Its BASOPHIL is 0%.

What about the EOSINOPHIL [1] of the same molecule?
The EOSINOPHIL was 0.67%.

What about the “ERYTHROCYTE COUNT” value [1] of the same molecule?
Its value is 5.57 x10E6/uL.

And the HEMATOCRIT [1]?
Its HEMATOCRIT is 35.33%.

And the HEMOGLOBIN [1]?
Its HEMOGLOBIN is 13.83 G/DL.

And the “LEUKOCYTE COUNT” value [1]?
Its value is 13.43 x10E3/uL.

What about the LYMPHOCYTE [1] of the same molecule?
The LYMPHOCYTE was 89.83%.

And the “MEAN CORPUSCULAR HEMOGLOBIN” value [1]?
Its value is 24.88 pg.

And the “MEAN CORPUSCULAR HEMOGLOBIN CONCENTRATION” value [1]?
The value was 39.15 G/DL.

What about the “MEAN CORPUSCULAR VOLUME” value [1] of the same molecule?
The value was 63.52 fL.

And the MONOCYTE [1]?
The MONOCYTE was 1.17%.

And the NEUTROPHIL [1]?
Its NEUTROPHIL is 8.33%.

And the “NUCLEATED RED BLOOD CELLS” value [1]?
The value was 0 /100WBC.

And the “PLATELET COUNT” value [1]?
Its value is 1181.33 x10E3/uL.

And the “ALANINE AMINOTRANSFERASE” value [1]?
The value was 48.33 u/L.

And the ALBUMIN [1]?
The ALBUMIN was 4.1 G/DL.

What about the “ALKALINE PHOSPHATASE” value [1] of the same molecule?
The value was 395 u/L.

And the “ASPARTATE AMINOTRANSFERASE” value [1]?
The value was 81.83 u/L.

And the “BLOOD UREA NITROGEN” value [1]?
Its value is 15.83 mg/dL.

And the “CARBON DIOXIDE” value [1]?
Its value is 24.17 mmol/L.

And the CHLORIDE [1]?
Its CHLORIDE is 103.83 MEQ/L.

What about the CHOLESTEROL [1] of the same molecule?
The CHOLESTEROL was 63.67 mg/dL.

And the “CREATINE PHOSPHOKINASE” value [1]?
The value was 372.83 u/L.

What about the CREATININE [1] of the same molecule?
Its CREATININE is 0.18 mg/dL.

And the GLUCOSE [1]?
Its GLUCOSE is 173.83 mg/dL.

And the “LACTATE DEHYDROGENASE” value [1]?
Its value is 188.33 u/L.

And the LIPASE [1]?
Its LIPASE is 9.5 u/L.

What about the PHOSPHORUS [1] of the same molecule?
The PHOSPHORUS was 11.95 mg/dL.

And the POTASSIUM [1]?
Its POTASSIUM is 5.99 MEQ/L.

What about the SODIUM [1] of the same molecule?
The SODIUM was 144.43 MEQ/L.

What about the “TOTAL BILIRUBIN” value [1] of the same molecule?
Its value is 0.15 mg/dL.

And the “TOTAL PROTEIN” value [1]?
Its value is 5.95 G/DL.

And the “URIC ACID” value [1]?
The value was 1.82 mg/dL.

What about the “ABSOLUTE BASOPHIL” value [2] of the same molecule?
Its value is 0 CELLS/uL.

And the “ABSOLUTE EOSINOPHIL” value [2]?
Its value is 26.67 CELLS/uL.

What about the “ABSOLUTE LYMPHOCYTE” value [2] of the same molecule?
Its value is 7583.83 CELLS/uL.

And the “ABSOLUTE MONOCYTE” value [2]?
The value was 131.33 CELLS/uL.

What about the “ABSOLUTE SEGMENTED NEUTROPHIL” value [2] of the same molecule?
The value was 674.83 CELLS/uL.

What about the BASOPHIL [2] of the same molecule?
The BASOPHIL was 0%.

What about the EOSINOPHIL [2] of the same molecule?
Its EOSINOPHIL is 0.33%.

And the “ERYTHROCYTE COUNT” value [2]?
The value was 5.78 x10E6/uL.

What about the HEMATOCRIT [2] of the same molecule?
The HEMATOCRIT was 36.48%.

What about the HEMOGLOBIN [2] of the same molecule?
The HEMOGLOBIN was 14.03 G/DL.

What about the “LEUKOCYTE COUNT” value [2] of the same molecule?
The value was 8.42 x10E3/uL.

And the LYMPHOCYTE [2]?
Its LYMPHOCYTE is 89.83%.

And the “MEAN CORPUSCULAR HEMOGLOBIN” value [2]?
Its value is 24.3 pg.

And the “MEAN CORPUSCULAR HEMOGLOBIN CONCENTRATION” value [2]?
The value was 38.52 G/DL.

And the “MEAN CORPUSCULAR VOLUME” value [2]?
Its value is 63.15 fL.

And the MONOCYTE [2]?
The MONOCYTE was 1.67%.

And the NEUTROPHIL [2]?
Its NEUTROPHIL is 8.17%.

And the “NUCLEATED RED BLOOD CELLS” value [2]?
Its value is 0 /100WBC.

And the “PLATELET COUNT” value [2]?
Its value is 1186.67 x10E3/uL.

And the “ALANINE AMINOTRANSFERASE” value [2]?
The value was 50.17 u/L.

And the ALBUMIN [2]?
Its ALBUMIN is 4.07 G/DL.

And the “ALKALINE PHOSPHATASE” value [2]?
The value was 367.5 u/L.

And the “ASPARTATE AMINOTRANSFERASE” value [2]?
The value was 81.67 u/L.

And the “BLOOD UREA NITROGEN” value [2]?
Its value is 16.17 mg/dL.

What about the “CARBON DIOXIDE” value [2] of the same molecule?
Its value is 32.33 mmol/L.

What about the CHLORIDE [2] of the same molecule?
The CHLORIDE was 101.5 MEQ/L.

And the CHOLESTEROL [2]?
Its CHOLESTEROL is 65.33 mg/dL.

And the “CREATINE PHOSPHOKINASE” value [2]?
The value was 255.33 u/L.

What about the CREATININE [2] of the same molecule?
Its CREATININE is 0.17 mg/dL.

What about the GLUCOSE [2] of the same molecule?
Its GLUCOSE is 139.33 mg/dL.

And the “LACTATE DEHYDROGENASE” value [2]?
Its value is 95 u/L.

And the LIPASE [2]?
The LIPASE was 10.5 u/L.

And the PHOSPHORUS [2]?
Its PHOSPHORUS is 10.38 mg/dL.

And the POTASSIUM [2]?
Its POTASSIUM is 6.11 MEQ/L.

And the SODIUM [2]?
Its SODIUM is 145.55 MEQ/L.

What about the “TOTAL BILIRUBIN” value [2] of the same molecule?
Its value is 0.17 mg/dL.

And the “TOTAL PROTEIN” value [2]?
The value was 5.98 G/DL.

And the “URIC ACID” value [2]?
Its value is 0.93 mg/dL.

What about the “ABSOLUTE BASOPHIL” value [3] of the same molecule?
The value was 0 CELLS/uL.

And the “ABSOLUTE EOSINOPHIL” value [3]?
The value was 59.33 CELLS/uL.

What about the “ABSOLUTE LYMPHOCYTE” value [3] of the same molecule?
Its value is 15201.67 CELLS/uL.

And the “ABSOLUTE MONOCYTE” value [3]?
The value was 170 CELLS/uL.

What about the “ABSOLUTE SEGMENTED NEUTROPHIL” value [3] of the same molecule?
Its value is 1569 CELLS/uL.

And the BASOPHIL [3]?
Its BASOPHIL is 0%.

What about the EOSINOPHIL [3] of the same molecule?
The EOSINOPHIL was 0.33%.

What about the “ERYTHROCYTE COUNT” value [3] of the same molecule?
Its value is 5.47 x10E6/uL.

And the HEMATOCRIT [3]?
Its HEMATOCRIT is 35.2%.

What about the HEMOGLOBIN [3] of the same molecule?
The HEMOGLOBIN was 13.83 G/DL.

And the “LEUKOCYTE COUNT” value [3]?
Its value is 17 x10E3/uL.

And the LYMPHOCYTE [3]?
Its LYMPHOCYTE is 88.67%.

What about the “MEAN CORPUSCULAR HEMOGLOBIN” value [3] of the same molecule?
Its value is 25.3 pg.

What about the “MEAN CORPUSCULAR HEMOGLOBIN CONCENTRATION” value [3] of the same molecule?
The value was 39.3 G/DL.

What about the “MEAN CORPUSCULAR VOLUME” value [3] of the same molecule?
The value was 64.4 fL.

What about the MONOCYTE [3] of the same molecule?
The MONOCYTE was 1%.

What about the NEUTROPHIL [3] of the same molecule?
Its NEUTROPHIL is 10%.

And the “NUCLEATED RED BLOOD CELLS” value [3]?
Its value is 0 /100WBC.

And the “PLATELET COUNT” value [3]?
The value was 1236.33 x10E3/uL.

What about the “ALANINE AMINOTRANSFERASE” value [3] of the same molecule?
The value was 54.33 u/L.

What about the ALBUMIN [3] of the same molecule?
The ALBUMIN was 3.9 G/DL.

What about the “ALKALINE PHOSPHATASE” value [3] of the same molecule?
Its value is 296.67 u/L.

And the “ASPARTATE AMINOTRANSFERASE” value [3]?
The value was 72 u/L.

And the “BLOOD UREA NITROGEN” value [3]?
Its value is 13.67 mg/dL.

What about the “CARBON DIOXIDE” value [3] of the same molecule?
Its value is 28.33 mmol/L.

What about the CHLORIDE [3] of the same molecule?
Its CHLORIDE is 100.67 MEQ/L.

What about the CHOLESTEROL [3] of the same molecule?
The CHOLESTEROL was 65 mg/dL.

What about the “CREATINE PHOSPHOKINASE” value [3] of the same molecule?
The value was 186.33 u/L.

What about the CREATININE [3] of the same molecule?
The CREATININE was 0.12 mg/dL.

And the GLUCOSE [3]?
Its GLUCOSE is 155.67 mg/dL.

What about the “LACTATE DEHYDROGENASE” value [3] of the same molecule?
The value was 82.33 u/L.

What about the LIPASE [3] of the same molecule?
The LIPASE was 9.33 u/L.

And the PHOSPHORUS [3]?
Its PHOSPHORUS is 12.27 mg/dL.

What about the POTASSIUM [3] of the same molecule?
The POTASSIUM was 6.41 MEQ/L.

What about the SODIUM [3] of the same molecule?
Its SODIUM is 142.37 MEQ/L.

What about the “TOTAL BILIRUBIN” value [3] of the same molecule?
The value was 0.17 mg/dL.

And the “TOTAL PROTEIN” value [3]?
Its value is 5.6 G/DL.

And the “URIC ACID” value [3]?
Its value is 1.5 mg/dL.
